These results are taken from patent publication US8980914B2, “Therapeutic agent for chronic obstructive pulmonary disease and method for treatment for chronic obstructive pulmonary disease with the same” (Mariposa Health Limited, priority 2003, dated 2015).

Assay [1] relates to airway hyper-responsiveness induced by ozone. Description: Airway hyper-responsiveness model induced by inhalation of ozone in guinea pigs (lung resistance after methacholine). In kind it is in vivo. Conditions: RLung after methacholine inhalation 5 hours after end of ozone exposure. On the procedure: This test was performed so as to evaluate the pharmacological effect of the 7-aminoquinolinone derivatives of the present invention in an airway hyper-responsiveness model induced by inhalation of ozone in guinea pigs. The test procedure will now be described.
Guinea pigs were fasted for 18 hours or more. The animals were administered the test substance (30 mg/kg) and theophylline (100 mg/kg) one hour before ozone inhalation. For the non-stimulation group and the vehicle control group, vehicle (5 mL/kg) was administered similarly.
The animals were put into an acryl-made chamber (29×19×25 cm), subjected to induction of ozone generated by an ozonizer (EUV3-XU; EBARA JITSUGYO CO, LTD.) and exposed for 2 hours. The ozone concentration in the chamber was approximately 3 ppm. It was confirmed every 30 minutes that this concentration was maintained during exposure by an ozone monitor (EG-5000; EBARA JITSUGYO CO, LTD.) (measured value: 2.53 to 3.40 ppm). For the non-stimulation group, the animals were exposed to a mixed gas (oxygen: 95%, carbonic acid gas: 5%) similarly. The ozone concentration at that time was also confirmed similarly (acceptable concentration: 0.01 ppm or less, measured value: 0.00 to 0.01 ppm).
The measurement of airway hyper-responsiveness was performed 5 hours after the end of ozone exposure. The measurement of lung resistance (RLung) was performed according to the method of R. E. Giles et al. in the same manner as in Example 2. That is, the animals were anesthetized with Nembutal (Trade name: 50 mg/kg, i.p., sodium pentobarbital) and subjected to cannulation into esophagus and trachea. The esophagus and trachea cannulas were connected to a respirator (ventilation volume: 6 mL/kg, ventilation frequency: 60 times/min, SN-480-7) and the RLung after inhalation of methacholine (100 μg/mL, for 1.5 minutes) was measured by the respiratory function analyzer (PULMOS-II; M.I.P.S) through a flow sensor (connected to Validyle DF45F (for flow rate) and DP45P (for pressure)). The inhalation of methacholine was performed with an ultrasonic nebuliser (NE-U17; Omron Matsuzaka) connected to the respirator under artificial respiration.
Used RLung represents 10 breaths having a stable value in a range from 1 to 30 breaths after initiation of each measurement for both before inhalation and during methacholine inhalation. The average of the RLung was calculated. The extreme values in RLung that occurred when animal moved during the measurement were excluded from the calculations.
The percentage of increase of RLung was calculated by the following equation. Increase in lung resistance (%)=([RLung after inhalation of methacholine]−[RLung before administration])/[RLung before administration]×100

The test system of assay [2] is airway hyper-responsiveness induced by peroxynitrite. Description: Airway hyper-responsiveness model induced by exposure of peroxynitrite in guinea pigs (lung resistance after histamine). The class given is in vivo. The following applies: 30 mg/kg orally one hour before peroxynitrite, histamine 32 μg/kg i.v. on 5-day, control group 759, non-stimulation group 382. On the procedure:
This test was performed so as to investigate the pharmacological effect of the 7-aminoquinolinone derivative of the present invention on an airway hyper-responsiveness model induced by exposure of peroxynitrite in guinea pigs. The test procedure will now be described.
Guinea pigs were fasted for 18 hours or more. The animals were administrated the test substance (30 mg/kg) orally one hour before exposure of peroxynitrite and the neck was dissected under ether anesthesia, and then the trachea was exposed. 0.1 mL of 1 mmol/L peroxynitrite was administered intratracheally into pulmonary side by pushing with air and, after the administration, the incision was sutured and disinfected.
The measurement of airway hyper-responsiveness was performed on 5-day, taking the day of model preparation 0-day. Guinea pigs were fasted for 18 hours or more. The measurement of lung resistance; (RLung) was performed according to the method of R. E. Giles et al. (R. E. Giles, M. P. Finkel and J. Mazurowski: Use of an Analog On-Line Computer for the Evaluation of Pulmonary Resistance and Dynamic Compliance in the Anesthetized Dog. Arch. Int. Pharmacodyn. 194, 213-222 (1971)). That is, the animals were anesthetized with Nembutal (Trade name: 40 mg/kg, i.v., sodium pentobarbital) and subjected to cannulation into esophagus, trachea and jugular veins (for administration of histamine). The esophagus and trachea cannulas were connected to an artificial respirator (ventilation volume: 6 mL/kg, ventilation frequency: 60 times/min, SN-480-7) and the Rlung was measured after intravenous administration (dose of 0.1 mL/kg) of physiological saline solution and histamine (32 μg/kg) using a total plethysmograph system via flow sensor, connected to Validyne DF45F (for flow rate) and DP45P (for pressure). RLung before administration was determined by averaging values of any 3 out of 20 breaths, RLung after administration of physiological saline solution was determined by averaging values of any 3 out of 5 breaths, and RLung after administration of histamine was determined by averaging values of the following 3 breaths; 1) showing the maximum lung resistance, 2) taken just before and 3) taken just after the one with the maximum lung resistance, out less than 20 breaths. (The extreme values in RLung that occurred when animal moved during the measurement were excluded from the calculations.)
The percentage of increase in lung resistance was calculated by the following equation. Increase in lung resistance (%)=([RLung after administration of histamine]−[RLung before administration])/[RLung before administration]×100

Assay [3] is described as follows: Peroxynitrite scavenging activity (oxidation of dihydrorhodamine 123). In kind it is biochemical. Conditions: oxidation of dihydrorhodamine 123 by peroxynitrite, phosphate buffer pH 7.4; read-out: 50% Inhibitory concentration on oxidation (IC50). How it is done:
This test was performed by estimating the antioxidative effect of the test substance using peroxynitrite quantitative method as a test system with dihydrorhodamine 123 so as to confirm the ability of the 7-aminoquinolinone derivatives of the present invention to scavenge peroxynitrite. This is a method described in NITRIC OXIDE: Biology and Chemistry Vol. 1, 145-157, 1997.
The test substance was weighted in an amount of approximately 10 mg, dissolved in a 10% Tween 80 solution and adjusted to 5×10^−3 mol/L. Then, the solution was diluted with 0.1 mol/L phosphate buffer (pH=7.4) to 5×10^−4 mol/L. The diluent was further diluted stepwise with a phosphate buffer containing 1% Tween 80 to obtain substance solution. The preparation was conducted before use. The final concentration of the test substance was adjusted to 3×10^−6, 1×10^−6, 3×10^−7, 1×10^−7, and 3×10^−8 mol/L, respectively.
To 20 μL of peroxynitrite solution (manufactured by DOJINDO LABORATORIES), 1980 μL of 0.1 mol/L sodium hydroxide was added and the mixture was diluted 100 times. The absorbance of the maximum absorption wavelength near 300 nm was measured using a UV-visible spectrophotometer and the concentration was calculated according to the following equation. Concentration(mmol/L)=(absorbance/1670)×100×1000
Based on the concentration calculated in the above section, dilution with a 0.1 mol/L sodium hydroxide solution was conducted and adjusted to 10 mmol/L. 990 μL of a 0.1 mol/L sodium hydroxide solution was taken into a 1.5 mL-Eppen tube. To the Eppen tube, 10 μL of a solution adjusted to 10 mmol/L was added to prepare a 100 μmol/L solution.
Dihydrorhodamine 123 was dissolved into 1.155 mL of dimethylsulfoxide, and adjusted to the concentration of 25 mmol/L. This solution was dispensed into 20 μL aliquots and then the aliquots were stored in a biomedical freezer (about −20° C.) and used as a stock solution.
To 490 μL of 0.02% Tween 80 containing 0.1 mol/L phosphate buffer, 10 μL of 25 mmol/L of a thawed dihydrorhodamine 123 stock solution was added to make 500 μmol/L. The prepared solution was diluted with 0.1 mol/L phosphate buffer (pH=7.4) 1000 times to prepare 500 nmol/L of a dihydrorhodamine 123 solution.
(1) To a 3.5 mL brown vial containing a stirring bar, 1470 μL of a 500 nmol/L dihydrorhodamine 123 solution and then 15 μL of the test substance solution was added. For the blank and control groups, 15 μL of 0.1 mol/L phosphate buffer containing 1% Tween 80, as a solvent for the test substance solution, was added. After the addition, the mixture was stirred with a stirrer for 30 minutes.
15 μL of a 100 μmol/L peroxynitrite solution was added while stirring. For the blank group, 15 μL of a 0.1 mol/L sodium hydroxide solution was added. After stirring for 15 minutes, fluorescence intensity was measured.
Fluorescence intensity of the reaction solution was measured using a spectrophotofluorometer under the following measuring conditions: excitation wavelength, 500 nm; emission wavelength, 536 nm; measuring times, one; response, 1 sec; photomultiplier tube voltage, Low; band width at excitation side, 10 nm; bandwidth at emission side, 10 nm.
The oxidation rate of dihydrorhodamine 123 when adding the test substance was calculated, taking the oxidation rate of dihydrorhodamine 123 for control as 100, according to the following equation: Oxidation rate (%) of dihydrorhodamine 123=(measured value for each group−measured value for blank)/(measured for control−measured value for blank)×100 Calculation of Oxidation Inhibition Concentration (IC50)
50% oxidation concentration, that is 50% oxidation inhibition concentration (IC50) was calculated by giving a straight line from two points surrounding 50% oxidation rate.

Setting [4] is: test substance 30 mg/kg one hour before ozone inhalation.

With `COc1c(OC(C)=O)c(=O)n(C)c2cc(N)ccc12` [Compound 32], the “Increase in lung resistance (%)” value was 32% in assay [1] (setting [4]) and 435% in assay [2]. In addition, the IC50 in assay [3] came to 960 nM.

Turning to `CCCCCCOc1c(O)c2ccc(N)cc2n(C)c1=O` [Compound 53], the “Increase in lung resistance (%)” value is reported as 29% in assay [1] (setting [4]) and 440% in assay [2]. The IC50 in assay [3] turned out to be 880 nM.

Consider `CCCCCCCCOc1c(O)c2ccc(N)cc2n(C)c1=O` [Compound 55], for which the “Increase in lung resistance (%)” value in assay [1] (setting [4]) is listed as 26%; in assay [2] it was 425%. The IC50 in assay [3] was found to be 960 nM.

Take `C=CCOc1c(O)c2ccc(N)cc2n(C)c1=O` [Compound 56]: the figures for the “Increase in lung resistance (%)” value in assay [1] (setting [4]) and in assay [2] were 30% and 434%, respectively. Besides, the IC50 in assay [3] worked out at 1050 nM.

With `COc1c(O)c(=O)n(C)c2cc(N)ccc12` [Compound 58], the “Increase in lung resistance (%)” value in assay [1] (setting [4]) is listed as 27%; in assay [2] it was 423%. Further, in assay [3], the IC50 came to 810 nM.

`CCCCCCCCOc1c(O)c2ccc(N)cc2n(CC)c1=O` [Compound 87]: the results for the “Increase in lung resistance (%)” value in assay [1] (setting [4]) and in assay [2] were 29% and 432%, respectively. Further, in assay [3], the IC50 stood at 840 nM.

For `CCCCCCOc1c(O)c2ccc(N)cc2n(CCCCCC)c1=O` [Compound 147], the “Increase in lung resistance (%)” value came out at 29% in assay [1] (setting [4]) and 429% in assay [2]. The IC50 in assay [3] came to 790 nM.

Turning to `CCCCCCCCn1c(=O)c(OC)c(O)c2ccc(N)cc21` [Compound 173], the “Increase in lung resistance (%)” value is 30% in assay [1] (setting [4]) and 430% in assay [2]. Moreover, the IC50 in assay [3] amounted to 890 nM.

`CCCCCCCCn1c(=O)c(O)c(OC)c2ccc(N)cc21` [Compound 181]: the “Increase in lung resistance (%)” value in assay [1] (setting [4]) is on record as 25%; in assay [2], 425%. Besides, the IC50 in assay [3] was 940 nM.

`CCCCCCNc1ccc2c(O)c(OC)c(=O)[nH]c2c1` [Compound 204]: the “Increase in lung resistance (%)” value in assay [1] (setting [4]) was 37%; in assay [2], 439%. Further, the IC50 in assay [3] amounted to 890 nM.

As to `CCNc1ccc2c(O)c(OC)c(=O)n(C)c2c1` [Compound 236], the “Increase in lung resistance (%)” value in assay [1] (setting [4]) came to 28%; in assay [2] it was 428%. In assay [3], the IC50 stood at 880 nM.

As for `CCCCNc1ccc2c(OC)c(O)c(=O)n(CC)c2c1` [Compound 276], the “Increase in lung resistance (%)” value in assay [1] (setting [4]) is given as 30%; in assay [2], 430%. Further, in assay [3], the IC50 came out at 820 nM.

As for `CCCCOc1c(O)c2ccc(N(C)C)cc2n(CCCC)c1=O` [Compound 303], the “Increase in lung resistance (%)” value in assay [1] (setting [4]) was determined as 27%; in assay [2] it was 427%. In assay [3], the IC50 was determined as 840 nM.

`CCCCn1c(=O)c(O)c(OC)c2ccc(N(C)C)cc21` [Compound 309]: the figures for the “Increase in lung resistance (%)” value in assay [1] (setting [4]) and in assay [2] were 34% and 435%, respectively. Further, in assay [3], the IC50 is 800 nM.

Regarding `CCCCCCn1c(=O)c(OC)c(O)c2ccc(NCC)cc21` [Compound 330], the entries for the “Increase in lung resistance (%)” value in assay [1] (setting [4]) and in assay [2] were 22% and 417%, respectively. In assay [3], the IC50 was found to be 790 nM.

With `CCCCCCCCn1c(=O)c(OC)c(O)c2ccc(NCC)cc21` [Compound 359], the results for the “Increase in lung resistance (%)” value in assay [1] (setting [4]) and in assay [2] were 31% and 431%, respectively. In addition, in assay [3], the IC50 was 850 nM.

Regarding `CCCCCCCCOc1c(O)c2ccc(NC(C)=O)cc2n(C)c1=O` [Compound 396], the “Increase in lung resistance (%)” value in assay [1] (setting [4]) was determined as 22%; in assay [2], 421%. Further, the IC50 in assay [3] came out at 940 nM.

As for `CCCCCCOc1c(O)c(=O)n(C)c2cc(NC(C)=O)ccc12` [Compound 401], the results for the “Increase in lung resistance (%)” value in assay [1] (setting [4]) and in assay [2] were 25% and 420%, respectively. In assay [3], the IC50 came to 1010 nM.

Regarding `Cn1c(=O)c2[nH]cnc2n(C)c1=O` [theophylline, reference compound], in assay [1] (theophylline 100 mg/kg one hour before ozone inhalation), the “Increase in lung resistance (%)” value is 26%.
